Measurements as given in patent US20120015957A1, “PIPERAZINYL DERIVATIVES USEFUL AS MODULATORS OF THE NEUROPEPTIDE Y2 RECEPTOR” (priority 2007, published 2012).
Like-named read-outs stand apart in the source and are kept apart here.

Biological target: T1, NPY Y2 receptor (Homo sapiens, UniProt P49146)
T1 construct: endogenous in cells; host or cells: KAN-Ts cells (membrane preparation)
T1 sequence (P49146 1-381): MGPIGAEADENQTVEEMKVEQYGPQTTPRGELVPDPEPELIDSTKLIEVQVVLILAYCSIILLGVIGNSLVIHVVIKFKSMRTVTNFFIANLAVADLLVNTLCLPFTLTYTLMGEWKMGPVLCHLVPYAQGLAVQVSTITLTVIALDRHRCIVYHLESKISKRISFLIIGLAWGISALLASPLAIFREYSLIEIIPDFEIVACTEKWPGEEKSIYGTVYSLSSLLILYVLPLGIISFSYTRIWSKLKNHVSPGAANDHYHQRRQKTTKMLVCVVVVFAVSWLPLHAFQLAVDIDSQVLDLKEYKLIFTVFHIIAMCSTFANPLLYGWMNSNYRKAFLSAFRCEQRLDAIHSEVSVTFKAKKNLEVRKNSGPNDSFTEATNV
Assay: Neuropeptide Y2 radioligand binding assay ([125I]PYY, KAN-Ts cell membranes)
Protocol: KAN-Ts endogenously expressing Y2 receptors were used for the radioligand binding assay. Cells were grown to confluence on 150 cm^2 tissue culture plates, washed with phosphate-buffered saline (PBS), and scraped into 50 mL tubes. After centrifugation, the supernatant was aspirated, and the pellets frozen and stored at −80° C. Thawed pellets were homogenized with a polytron tissue grinder for 15 sec in 20 mM Tris-HCl, 5 mM EDTA. The homogenate was centrifuged at 800×g for 5 min and the collected supernatant was recentrifuged at 25000×g for 25 min. The resulting pellet was resuspended in binding buffer (20 mM HEPES, 120 mM NaCl, 0.22 mM KH2PO4, 1.3 mM CaCl2, 0.8 mM MgSO4). Membranes were incubated with [^125I]PYY (80 pM) in the presence or absence of test compound for 1 h at rt. The reaction was stopped by filtration through GF/C filter plates pre-soaked in 0.3% polyethylenimine and subsequently washed with Tris 50 mM, 5 mM EDTA buffer. Plates were dried for 1 h in a 55° C. oven, scintillation fluid was added and the radioactivity was counted in a Packard TopCount. Specific binding to the NPY receptor subtypes was determined by radioactivity that was bound in the presence of […] NPY. Each binding experiment was repeated three to eight times, each in duplicate. IC50 values (i.e. concentration of unlabelled peptide or antagonist required to compete for 50% of specific binding to the radioligand) were determined using the GraphPad Prism software (GraphPad Software Inc., San Diego Calif.) with a fit to a sigmoidal dose response curve. Apparent K values were as K=IC50/(1+C/KD), where C is concentration of the radioligand.

[1] = membranes of KAN-Ts cells endogenously expressing Y2 receptors, [125I]PYY 80 pM, 1 h at rt, read-out: IC50 (μM), NPY Y2 binding

Row | SMILES | IC50 [1] [µM] | IC50 [µM]
1 | CCc1noc(-c2ccc(N3CCN(C(C(=O)N(C)C)c4ccccc4)CC3)c(F)c2)n1 (centres unmarked) [Compound 181, 2-{4-[4-(3-Ethyl-[1,2,4]oxadiazol-5-yl)-2-fluoro-phenyl]-piperazin-1-yl}-N,N-dimethyl-2-phenyl-acetamide] | 0.53 | –
2 | CCN(CC)C(=O)C(c1ccccc1)N1CCN(c2ccc(-c3nnc(C(C)C)o3)cc2F)CC1 (centres unmarked) [Compound 154, N,N-Diethyl-2-{4-[2-fluoro-4-(5-isopropyl-[1,3,4]oxadiazol-2-yl)-phenyl]-piperazin-1-yl}-2-phenyl-acetamide] | 0.22 | –
3 | CCN(CC)C(=O)C(c1ccccc1)N1CCN(c2ccc(-c3noc(C#N)n3)cc2F)CC1 (centres unmarked) [Compound 147, 2-{4-[4-(5-Cyano-[1,2,4]oxadiazol-3-yl)-2-fluoro-phenyl]-piperazin-1-yl}-N,N-diethyl-2-phenyl-acetamide] | 4.1 | –
4 | CCN(CC)C(=O)C(c1ccccc1)N1CCN(c2ccc(-c3noc(C(=O)O)n3)cc2F)CC1 (centres unmarked) [Compound 151, 3-{4-[4-(Diethylcarbamoyl-phenyl-methyl)-piperazin-1-yl]-3-fluorophenyl}-[1,2,4]oxadiazole-5-carboxylic acid] | > 10 | –
5 | CCN(CC)C(=O)C(c1ccccc1)N1CCN(c2ccc(C3=N[C@H](C(=O)OC)CO3)cc2F)CC1 (some centres unmarked) [Compound 124, 2-{4-[4-(Diethylcarbamoyl-phenyl-methyl)-piperazin-1-yl]-3-fluorophenyl}-4,5-dihydro-oxazole-4-carboxylic acid methyl ester] | 1 | –
6 | CCN(CC)C(=O)C(c1ccccc1)N1CCN(c2ccc(-c3noc(SC)n3)cc2F)CC1 (centres unmarked) [Compound 177, N,N-Diethyl-2-{4-[2-fluoro-4-(5-methylsulfanyl-[1,2,4]oxadiazol-3-yl)-phenyl]-piperazin-1-yl}-2-phenyl-acetamide] | 0.51 | –
7 | CCCc1nc(-c2ccc(N3CCN(C(C(=O)N(CC)CC)c4ccccc4)CC3)c(F)c2)no1 (centres unmarked) [Compound 68, N,N-Diethyl-2-{4-[2-fluoro-4-(5-propyl-[1,2,4]oxadiazol-3-yl)-phenyl]-piperazin-1-yl}-2-phenyl-acetamide] | 0.52 | –
8 | Cc1noc(-c2ccc(N3CCN(C(C(=O)N(C)C)c4ccccc4)CC3)c(F)c2)n1 (centres unmarked) [Compound 182, 2-{4-[2-Fluoro-4-(3-methyl-[1,2,4]oxadiazol-5-yl)-phenyl]-piperazin-1-yl}-N,N-dimethyl-2-phenyl-acetamide] | 0.56 | –
9 | CCC(CC)c1nc(-c2ccc(N3CCN(C(C(=O)N(CC)CC)c4ccccc4)CC3)c(F)c2)no1 (centres unmarked) [Compound 70, N,N-Diethyl-2-(4-{4-[5-(1-ethyl-propyl)-[1,2,4]oxadiazol-3-yl]-2-fluoro-phenyl}-piperazin-1-yl)-2-phenyl-acetamide] | 0.48 | –
10 | CCc1cnc(-c2ccc(N3CCN(C(C(=O)N(CC)CC)c4ccccc4)CC3)c(F)c2)o1 (centres unmarked) [Compound 133, N,N-Diethyl-2-{4-[4-(5-ethyl-oxazol-2-yl)-2-fluoro-phenyl]-piperazin-1-yl}-2-phenyl-acetamide] | 0.46 | –
11 | CCN(CC)C(=O)C(c1ccccc1)N1CCN(c2ccc(-c3cc(C)nn3-c3ccccc3)cc2F)CC1 (centres unmarked) [Compound 186, N,N-Diethyl-2-{4-[2-fluoro-4-(5-methyl-2-phenyl-2H-pyrazol-3-yl)-phenyl]-piperazin-1-yl}-2-phenyl-acetamide] | 0.11 | –
12 | CCN(CC)C(=O)C(c1ccccc1)N1CCN(c2ccc(-c3nnc(C(C)C)[nH]3)cc2F)CC1 (centres unmarked) [Compound 212, N,N-Diethyl-2-{4-[2-fluoro-4-(5-isopropyl-2H-[1,2,4]triazol-3-yl)-phenyl]-piperazin-1-yl}-2-phenyl-acetamide] | 0.83 | –
13 | CCNC(=O)C(c1ccccc1)N1CCN(c2ccc(-c3nc(C(C)C)no3)cc2C#N)CC1 (centres unmarked) [Compound 270] | – | 0.062
14 | CCN(CC)C(=O)C(c1ccccc1)N1CCN(c2ccc(-c3noc(CF)n3)cc2F)CC1 (centres unmarked) [Compound 105, N,N-Diethyl-2-{4-[2-fluoro-4-(5-fluoromethyl-[1,2,4]oxadiazol-3-yl)-phenyl]-piperazin-1-yl}-2-phenyl-acetamide] | 0.16 | –
15 | CCN(CC)C(=O)C(c1ccccc1)N1CCN(c2ccc(-c3noc(C(N)=O)n3)cc2F)CC1 (centres unmarked) [Compound 144, 3-{4-[4-(Diethylcarbamoyl-phenyl-methyl)-piperazin-1-yl]-3-fluorophenyl}-[1,2,4]oxadiazole-5-carboxylic acid amide] | 1.1 | –
16 | CCN(CC)C(=O)C(c1ccccc1)N1CCN(c2ccc(-c3ccccc3OC)cc2F)CC1 (centres unmarked) [Compound 214, N,N-Diethyl-2-[4-(3-fluoro-2′-methoxy-biphenyl-4-yl)-piperazin-1-yl]-2-phenyl-acetamide] | 0.078 | –
17 | CCN(C)C(=O)C(c1ccccc1)N1CCN(c2ccc(-c3nc(C(C)C)no3)cc2F)CC1 (centres unmarked) [Compound 184, N-Ethyl-2-{4-[2-fluoro-4-(3-isopropyl-[1,2,4]oxadiazol-5-yl)-phenyl]-piperazin-1-yl}-N-methyl-2-phenyl-acetamide] | 2.2 | –
18 | CCN(CC)C(=O)C(c1ccccc1)N1CCN(c2ccc(-c3noc(/C(N)=N/O)n3)cc2F)CC1 (centres unmarked) [Compound 149, N,N-Diethyl-2-(4-{2-fluoro-4-[5-(N-hydroxycarbamimidoyl)-[1,2,4]oxadiazol-3-yl]-phenyl}-piperazin-1-yl)-2-phenyl-acetamide] | 0.99 | –
19 | CCN(CC)C(=O)C(c1ccccc1)N1CCN(c2ccc(-c3noc(=O)n3C)cc2F)CC1 (centres unmarked) [Compound 176, N,N-Diethyl-2-{4-[2-fluoro-4-(4-methyl-5-oxo-4,5-dihydro-[1,2,4]oxadiazol-3-yl)-phenyl]-piperazin-1-yl}-2-phenyl-acetamide] | 1.9 | –

More lines, main results first:

Row | IC50 [1] [µM] | SMILES | IC50 [µM]
20 | 0.98 | CCN(CC)C(=O)C(c1ccccc1)N1CCN(c2ccc(-c3nc(C(C)C)no3)cc2COC)CC1 (centres unmarked) [Compound 260, N,N-Diethyl-2-{4-[4-(3-isopropyl-[1,2,4]oxadiazol-5-yl)-2-methoxymethyl-phenyl]-piperazin-1-yl}-2-phenyl-acetamide] | –
21 | 0.083 | CCN(CC)C(=O)C(c1cccc(F)c1)N1CCN(c2ccc(-c3nc(C)no3)cc2F)CC1 (centres unmarked) [Compound 211, N,N-Diethyl-2-{4-[2-fluoro-4-(3-methyl-[1,2,4]oxadiazol-5-yl)-phenyl]-piperazin-1-yl}-2-(3-fluoro-phenyl)-acetamide] | –
22 | 0.29 | CCN(CC)C(=O)C(c1ccc(F)cc1)N1CCN(c2ccc(-c3nc(C)no3)cc2F)CC1 (centres unmarked) [Compound 210, N,N-Diethyl-2-{4-[2-fluoro-4-(3-methyl-[1,2,4]oxadiazol-5-yl)-phenyl]-piperazin-1-yl}-2-(4-fluoro-phenyl)-acetamide] | –
23 | 0.48 | CCN(CC)C(=O)C(c1ccccc1)N1CCN(c2ccc(-c3cccc(C)c3)cc2F)CC1 (centres unmarked) [Compound 206] | –
24 | 1.1 | CCN(CC)C(=O)C(c1ccccc1)N1CCN(c2ccc(-c3ccc(F)cc3)cc2F)CC1 (centres unmarked) [Compound 207, 2-[4-(3,4′-Difluoro-biphenyl-4-yl)-piperazin-1-yl]-N,N-diethyl-2-phenyl-acetamide] | –
25 | 0.88 | CCN(CC)C(=O)C(c1ccccc1)N1CCN(c2ccc(-c3cccc(Cl)c3)cc2F)CC1 (centres unmarked) [Compound 194, 2-[4-(3′-Chloro-3-fluoro-biphenyl-4-yl)-piperazin-1-yl]-N,N-diethyl-2-phenyl-acetamide] | –
26 | 0.03 | CCN(CC)C(=O)C(c1ccccc1)N1CCN(c2ccc(-c3ccccc3OC)cc2C#N)CC1 (centres unmarked) [Compound 255, 2-[4-(3-Cyano-2′-methoxy-biphenyl-4-yl)-piperazin-1-yl]-N,N-diethyl-2-phenyl-acetamide] | –
27 | 0.63 | CCN(CC)C(=O)C(c1ccccc1)N1CCN(c2ccc(-c3ccc[nH]3)cc2F)CC1 (centres unmarked) [Compound 188, N,N-Diethyl-2-{4-[2-fluoro-4-(1H-pyrrol-2-yl)-phenyl]-piperazin-1-yl}-2-phenyl-acetamide] | –
28 | 0.035 | CCN(CC)C(=O)C(c1ccc(OC)cc1)N1CCN(c2ccc(-c3nc(C)no3)cc2C#N)CC1 (centres unmarked) [Compound 250, 2-{4-[2-Cyano-4-(3-methyl-[1,2,4]oxadiazol-5-yl)-phenyl]-piperazin-1-yl}-N,N-diethyl-2-(4-methoxy-phenyl)-acetamide] | –
29 | 0.33 | CCNC(=O)C(c1ccccc1)N1CCN(c2ccc(-c3nc(C)no3)cc2F)CC1 (centres unmarked) [Compound 190, N-Ethyl-2-{4-[2-fluoro-4-(3-methyl-[1,2,4]oxadiazol-5-yl)-phenyl]-piperazin-1-yl}-2-phenyl-acetamide] | –
